The values that follow come from patent US10584115B2, “Substituted pyridine and pyrazine BMI-1 inhibitors” (PTC Therapeutics, Inc., priority 2013, dated 2020).

Each structure is given as a SMILES string.

The test relates to Bmi-1 protein. The test is described as follows: Sandwich ELISA Assay (Bmi-1 protein level in HT-1080 cells after compound treatment). In kind it is cell-based. To be noted: Table 1, Bmi-1 sandwich ELISA, read-out: ELISA EC50 value for Bmi-1 protein. A digest of the protocol: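 HT-1080 cells exposed to compounds for 40–48 h at 37 °C (0.5% DMSO final), then lysed. Bmi-1 in lysates measured by sandwich ELISA (mouse monoclonal capture, rabbit anti-Bmi-1 detection, HRP anti-rabbit, TMB), read at OD450 with OD570 reference against a recombinant Bmi-1 standard curve (0–8000 pg/mL).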
On the technique in general: ELISA stands for enzyme-linked immunosorbent assay.
For orientation: EC50 means the concentration giving half of the maximal effect. On to `OCc1nc2ccccn2c1-c1cncc(Nc2ccc(C(F)(F)F)cc2)n1` [compound 151, [3-(6-{[4-(trifluoromethyl)phenyl]amino}pyrazin-2-yl)imidazo[1,2-a]pyridin-2-yl]methanol], for which the concentration giving a half-maximal response (EC50) lay within 1 to 10 nM.

On to `N#Cc1cc(Nc2ccc(C(F)(F)F)cc2)nc(-c2c(CO)nc3ccccn23)c1` [compound 288, 2-[2-(hydroxymethyl)imidazo[1,2-a]pyridin-3-yl]-6-{[4-(trifluoromethyl)phenyl]amino}pyridine-4-carbonitrile], for which the EC50 fell in the range of 10 to 100 nM. Then `Cc1nc2ccccc2n1-c1cccc(Nc2ccc(Cl)cc2)n1` [Cpd 606, N-(4-chlorophenyl)-6-(2-methyl-1H-benzimidazol-1-yl)pyridin-2-amine], with 100 to 3000 nM. Then `Cc1nc2ccc(F)cn2c1-c1cc(C#N)cc(Nc2cccc(F)c2)n1` [compound 651, 2-(6-fluoro-2-methylimidazo[1,2-a]pyridin-3-yl)-6-[(3-fluorophenyl)amino}pyridine-4-carbonitrile], with 100 to 3000 nM; and `O=[N+]([O-])c1cc(Nc2ccc(OC(F)(F)F)cc2)nc(-c2c(C(F)(F)F)nc3ccccn23)c1` [compound 197, 4-nitro-N-[4-(trifluoromethoxy)phenyl]-6-[2-(trifluoromethyl)imidazo[1,2-a]pyridin-3-yl]pyridin-2-amine], with 10 to 100 nM.

As to `FC(F)Oc1ccc(Nc2cccc(-c3c(C(F)(F)F)nc4ccccn34)n2)cc1` [Cpd 27, N-[4-(difluoromethoxy)phenyl]-6-[2-(trifluoromethyl)imidazo[1,2-a]pyridin-3-yl]pyridin-2-amine], the EC50 was 1 to 10 nM. In the case of `Nc1cc(Nc2ccc(OC(F)(F)F)cc2)nc(-c2c(C(F)(F)F)nc3ccccn23)c1` [compound 198, N^2-[4-(trifluoromethoxy)phenyl]-6-[2-(trifluoromethyl)imidazo[1,2-a]pyridin-3-yl]pyridine-2,4-diamine] it was 10 to 100 nM. In the case of `Cc1cc2nc(C)n(-c3cncc(Nc4ccc(OC(F)(F)F)cc4)n3)c2cc1C` [compound 387, N-[4-(trifluoromethoxy)phenyl]-6-(2,5,6-trimethyl-1H-benzimidazol-1-yl)pyrazin-2-amine] it was 100 to 3000 nM; in that of `COC(=O)c1ccc(Nc2cncc(-c3c(C)nn4ccccc34)n2)cc1` [compound 572, methyl 4-{[6-(2-methylpyrazolo[1,5-a]pyridin-3-yl)pyrazin-2-yl]amino}benzoate], 1 to 10 nM; in that of `Cc1nc2ccccc2n1-c1cncc(Nc2ccc(OC(F)F)cc2)n1` [compound 21, N-[4-(difluoromethoxy)phenyl]-6-(2-methyl-1H-benzimidazol-1-yl)pyrazin-2-amine], 1 to 10 nM. As to `Cc1nc2ccccc2n1-c1cncc(Nc2ccc(C(F)(F)F)c(CN)c2)n1` [compound 524, N-[3-(aminomethyl)-4-(trifluoromethyl)phenyl]-6-(2-methyl-1H-benzimidazol-1-yl)pyrazin-2-amine], the EC50 lay within 100 to 3000 nM.

Regarding `Cc1nc2cc(F)c(F)cc2n1-c1cncc(Nc2ccc(OC(F)F)c(F)c2)n1` [compound 319, N-[4-(difluoromethoxy)-3-fluorophenyl]-6-(5,6-difluoro-2-methyl-1H-benzimidazol-1-yl)pyrazin-2-amine], the 50% effective concentration (EC50) lay within 10 to 100 nM.

Turning to `CCc1nn2ccccc2c1-c1cncc(Nc2ccc(C#N)cc2)n1` [compound 641, 4-{[6-(2-ethylpyrazolo[1,5-a]pyridin-3-yl)pyrazin-2-yl]amino}benzonitrile], the EC50 fell in the range of 10 to 100 nM.

For `Oc1ccc(Nc2cncc(-c3c(C(F)(F)F)nc4ccccn34)n2)cc1` [compound 207, 4-({6-[2-(trifluoromethyl)imidazo[1,2-a]pyridin-3-yl]pyrazin-2-yl}amino)phenol], the EC50 was in the range of 100 to 3000 nM. Then `COc1ncc(Nc2cncc(-c3c(C(F)(F)F)nc4ccccn34)n2)cn1` [Cpd 201, 2-methoxy-N-{6-[2-(trifluoromethyl)imidazo[1,2-a]pyridin-3-yl]pyrazin-2-yl}pyrimidin-5-amine], with 1 to 10 nM; and `COc1ccc2nc(C(F)(F)F)c(-c3cccc(Nc4ccc(OC(F)(F)F)cc4)n3)n2c1` [compound 101, 6-[6-methoxy-2-(trifluoromethyl)imidazo[1,2-a]pyridin-3-yl]-N-[4-(trifluoromethoxy)phenyl]pyridin-2-amine], with 10 to 100 nM.

Regarding `FC(F)Oc1ccc(Nc2cncc(-c3c(C(F)(F)F)nc4cnccn34)n2)cc1` [compound 142, N-[4-(difluoromethoxy)phenyl]-6-[2-(trifluoromethyl)imidazo[1,2-a]pyrazin-3-yl]pyrazin-2-amine], the EC50 is 10 to 100 nM. Consider `COc1ccc(Nc2cc(C)cc(-n3c(C)nc4ccccc43)n2)cc1` [compound 655, N-(4-methoxyphenyl)-4-methyl-6-(2-methyl-1H-benzimidazol-1-yl)pyridin-2-amine], for which the EC50 was 100 to 3000 nM.

As for `COc1cccc(Nc2cncc(-n3c(C)nc4ccccc43)n2)c1` [compound 557, N-(3-methoxyphenyl)-6-(2-methyl-1H-benzimidazol-1-yl)pyrazin-2-amine], the EC50 fell in the range of 100 to 3000 nM. Then `COc1cccc(Nc2cncc(-n3c(C)nc4ccc(F)cc43)n2)c1` [compound 559, 6-(6-fluoro-2-methyl-1H-benzimidazol-1-yl)-N-(3-methoxyphenyl)pyrazin-2-amine], with 100 to 3000 nM. On to `FC(F)(F)Oc1ccc(Nc2cccc(-c3c(C(F)(F)F)nc4cnccn34)n2)cc1` [compound 195, N-[4-(trifluoromethoxy)phenyl]-6-[2-(trifluoromethyl)imidazo[1,2-a]pyrazin-3-yl]pyridin-2-amine], for which the EC50 lay in the range of 100 to 3000 nM. Then `Cc1nc2ccccc2n1-c1cncc(Nc2ccc(C(F)(F)F)c(F)c2)n1` [compound 209, N-[3-fluoro-4-(trifluoromethyl)phenyl]-6-(2-methyl-1H-benzimidazol-1-yl)pyrazin-2-amine], with 10 to 100 nM; and `COc1ccc2nc(C(F)(F)F)c(-c3cncc(Nc4ccc(OC(F)F)cc4)n3)n2c1` [Cpd 48, N-[4-(difluoromethoxy)phenyl]-6-[6-methoxy-2-(trifluoromethyl)imidazo[1,2-a]pyridin-3-yl]pyrazin-2-amine], with 1 to 10 nM. Then `COc1cc(Nc2cc(C#N)cc(-c3c(C)nc4ccc(F)cn34)n2)ccc1F` [compound 314, 2-[(4-fluoro-3-methoxyphenyl)amino]-6-(6-fluoro-2-methylimidazo[1,2-a]pyridin-3-yl)pyridine-4-carbonitrile], with 100 to 3000 nM; and `Cc1nn2ccccc2c1-c1cc(C#N)cc(Nc2ccc(OC(F)F)cc2)n1` [compound 512, 2-{[4-(difluoromethoxy)phenyl]amino}-6-(2-methylpyrazolo[1,5-a]pyridin-3-yl)pyridine-4-carbonitrile], with 10 to 100 nM. Then `Fc1cnc2nc(C3CC3)n(-c3cncc(Nc4ccc(OC(F)F)c(F)c4)n3)c2c1` [compound 459, 6-(2-cyclopropyl-6-fluoro-1H-imidazo[4,5-b]pyridin-1-yl)-N-[4-(difluoromethoxy)-3-fluorophenyl]pyrazin-2-amine], with 10 to 100 nM; and `N#Cc1nc2ccccc2n1-c1cncc(Nc2ccc(OC(F)F)cc2)n1` [compound 188, 1-(6-{[4-(difluoromethoxy)phenyl]amino}pyrazin-2-yl)-1H-benzimidazole-2-carbonitrile], with 10 to 100 nM. For the compound `Cn1nc2ccc(F)cc2c1-c1cncc(Nc2ccc(C(F)(F)F)cc2)n1` [compound 416, 6-(5-fluoro-2-methyl-2H-indazol-3-yl)-N-[4-(trifluoromethyl)phenyl]pyrazin-2-amine], the EC50 was 10 to 100 nM.

For `Cc1nc2cc(F)c(F)cc2n1-c1cncc(Nc2ccc3c(c2)OC(F)(F)O3)n1` [compound 579, N-(2,2-difluoro-1,3-benzodioxol-5-yl)-6-(5,6-difluoro-2-methyl-1H-benzimidazol-1-yl)pyrazin-2-amine], the EC50 fell in the range of 100 to 3000 nM. Then `CSc1nc2ccccc2n1-c1cncc(Nc2ccc(OC(F)F)cc2)n1` [compound 181, N-[4-(difluoromethoxy)phenyl]-6-[2-(methylsulfanyl)-1H-benzimidazol-1-yl]pyrazin-2-amine], with 10 to 100 nM.

Regarding `Cc1nc2cc(F)c(F)cc2n1-c1cncc(Nc2ccc(NCCN(C)C)nc2)n1` [compound 430, N^5-[6-(5,6-difluoro-2-methyl-1H-benzimidazol-1-yl)pyrazin-2-yl]-N^2-[2-(dimethylamino)ethyl]pyridine-2,5-diamine], the concentration giving a half-maximal response (EC50) was in the range of 100 to 3000 nM. Then `COc1ccc2nc(C)c(-c3cncc(Nc4ccc(OC(F)(F)F)cc4)n3)n2c1` [compound 377, 6-(6-methoxy-2-methylimidazo[1,2-a]pyridin-3-yl)-N-[4-(trifluoromethoxy)phenyl]pyrazin-2-amine], with 10 to 100 nM. As to `OCc1nc2ccc(F)cn2c1-c1cncc(Nc2ccc(C(F)(F)F)cc2)n1` [compound 328, [6-fluoro-3-(6-{[4-(trifluoromethyl)phenyl]amino}pyrazin-2-yl)imidazo[1,2-a]pyridin-2-yl]methanol], the EC50 is 1 to 10 nM. On to `OCCNc1cc(Nc2ccc(OC(F)F)cc2)nc(-c2c(C(F)(F)F)nc3ccccn23)c1` [compound 171], for which the EC50 was in the range of 10 to 100 nM. As for `Cc1nc2cc(F)c(F)cc2n1-c1cc(N)cc(Nc2ccc(C(F)(F)F)cc2)n1` [compound 231, 6-(5,6-difluoro-2-methyl-1H-benzimidazol-1-yl)-N^2-[4-(trifluoromethyl)phenyl]pyridine-2,4-diamine], the EC50 is 10 to 100 nM. In the case of `CCc1nc2ncc(Cl)cc2n1-c1cc(C#N)cc(Nc2ccc(C(F)(F)F)cc2)n1` [compound 450, 2-(6-chloro-2-ethyl-1H-imidazo[4,5-b]pyridin-1-yl)-6-{[4-(trifluoromethyl)phenyl]amino}pyridine-4-carbonitrile] it was 10 to 100 nM.
